Entries after “also recorded” stand apart in the source; their conditions may differ. Like-named read-outs stand apart in the source and are kept apart here.
Experiments:
[1] = tested on: NG108-15 neuroblastoma x glioma cells (m3 AChR); test: Inhibition of PGE1-stimulated cAMP levels in NG108-15 cells; type: cell-based; details: for inhibition at 100 µM: relative to control with no compounds added, conc. of compounds = 100 μM, read-out: cAMP Inhib; for agonist selectivity, in words: NG108-15 (cAMP) versus SK-N-SH (PI turnover)
Experimental: (§1) Compounds of the present invention were tested for their binding affinities and activation of second messengers in selective muscarinic cholinergic receptor systems. It is believed that m1 -, m4 -, and m5 AChRs couple exclusively to PI turnover, whereas m2 - and m3 -AChRs couple only to adenylate cyclase inhibition.
(§2) Compounds of the present invention were screened for their biological activity. Assay systems using SK-N-SH human neuroblastoma cells which express only m4 -AChRs coupled to PI turnover, and NG108-15 neuroblastoma x glioma cells which express only m3 AChRs coupled to adenylate cyclase inhibition were used.
Inhibition of PGE1 -stimulated cAMP levels in NG108-15 cells
Cells were plated in 24-well plates and were grown to 90% confluence. The growth media was then replaced with a solution of 1 mM IBMX in DMEM-Hepes (0.5 mL per well) and the cells were incubated for 10 min at 37° C. Agonists were then added at a final concentration of 100 μM, along with PGE1 (final conc, 5 μM), and the cells were incubated for a further 15 min at 37° C. The reaction Was terminated by aspirating the solution and adding 0.5 mL of 0.1N HCl. In order to extract the cAMP from the cells, they were incubated in 0.1 N HCl for 30 min at room temperature. An aliquot (35 50 μL) was removed, lyophilized, and assayed for cAMP by radioimmunoassay.

[2] = biological target: T1, muscarinic receptors, SK-N-SH cell membranes (m4 AChR) (Homo sapiens, UniProt P20309); test: Inhibition of [3H]-NMS binding to membranes from SK-N-SH cells; details: SK-N-SH cells; for inhibition at 100 µM: conc. of compounds = 100 μM; for inhibition at 50 µM: conc. of compound = 50 μM, read-out: binding (% inhibition of 3H-NMS binding)
T1 construct: membranes from SK-N-SH cells; endogenous in cells; host or cells: SK-N-SH human neuroblastoma cells (crude membrane fraction)
T1 sequence (P20309 whole entry): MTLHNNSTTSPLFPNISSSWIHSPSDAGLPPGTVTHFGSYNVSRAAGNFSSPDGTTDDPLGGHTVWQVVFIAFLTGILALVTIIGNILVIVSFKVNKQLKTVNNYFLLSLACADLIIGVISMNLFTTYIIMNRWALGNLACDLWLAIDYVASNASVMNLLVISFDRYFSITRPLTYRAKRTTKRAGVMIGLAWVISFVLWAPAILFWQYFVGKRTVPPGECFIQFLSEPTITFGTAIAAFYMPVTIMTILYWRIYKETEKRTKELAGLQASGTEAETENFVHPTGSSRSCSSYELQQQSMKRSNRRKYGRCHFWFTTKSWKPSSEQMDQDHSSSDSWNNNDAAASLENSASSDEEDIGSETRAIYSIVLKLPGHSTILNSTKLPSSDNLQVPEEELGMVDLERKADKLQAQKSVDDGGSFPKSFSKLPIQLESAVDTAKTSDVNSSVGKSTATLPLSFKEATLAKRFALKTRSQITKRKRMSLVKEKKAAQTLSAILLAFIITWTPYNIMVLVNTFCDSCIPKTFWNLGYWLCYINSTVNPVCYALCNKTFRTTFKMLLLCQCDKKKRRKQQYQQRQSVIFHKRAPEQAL
Text: as §2
(§3) Compounds of the present invention were also screened for their relative binding affinities. Assay systems which measured the inhibition of ^3 H-N-methylscopolamine (^3 H-NMS) binding to membranes from NG108-15 cells and membranes from SK-N-SH cells were used.
(§4) Inhibition of [^3 H]-NMS binding
(§5) Cells were grown to confluence, harvested, and a crude membrane fraction was obtained. […] The total volume was 1 mL. The incubation was terminated by rapid filtration over GF/B filters using a Brandel cell harvester. The filters were washed three times with ice-cold 0.9% NaCl, equilibrated in scintillation counting fluid and counted on a Beckman LS 5801 liquid scintillation counter at 47% efficiency. Non-specific binding was determined by coincubation with 1 μM atropine, and amounted to less than 15% of total counts. It was routinely subtracted from the total counts.

[3] = tested on: SK-N-SH human neuroblastoma cells (m4 AChR); test: Stimulation of PI turnover in SK-N-SH cells; type: cell-based; details: SK-N-SH cells; for Emax at 100 µM: Homo sapiens, 0.5 h, percent relative to the activity of OXO-M, conc. of compounds = 100 μM, read-out: Pi turnover
Experimental: as §1, §2
Stimulation of PI turnover in SK-N-SH cells
Cells were plated into 24-well plates at 100,000 cells per well. After 24 hours, they were labeled overnight with 2 μCi per well of [^3 H]-myo-inositol (American Radiolabeled Chemicals, Inc., St. Louis, Mo.; 15 Ci/mM; 2 μL of stock per mL of media). The cells were then rinsed twice with 10 mM LiCl in DMEM-Hepes and the cells were incubated in this solution for 5 min at 37° C. The indicated compound was then added at a final concentration of 100 μM and the cells were incubated for another 30 min at 37° C. The reaction was stopped by aspirating the solution and adding cold methanol to the cells. After transferring the cells to a glass tube and sonicating briefly, chloroform and water were added to make a two-phase system. The upper aqueous phase was applied to 0.6 mL anion exchange columns (AG X8, Bio-Rad) and the columns were washed and total inositol phosphates were eluted with 1M ammonium formate and 0.1M formic acid.

[4] = biological target: T2, muscarinic receptors, NG108-15 cell membranes (m3 AChR) (Mus musculus, UniProt P32211); test: Inhibition of [3H]-NMS binding to membranes from NG108-15 cells; details: NG108-15 cells; for inhibition at 100 µM: conc. of compounds = 100 μM; for inhibition at 50 µM: conc. of compound = 50 μM, read-out: binding (% inhibition of 3H-NMS binding)
T2 construct: membranes from NG108-15 cells; endogenous in cells; host or cells: NG108-15 neuroblastoma x glioma hybrid cells (crude membrane fraction)
T2 sequence (P32211 1-479): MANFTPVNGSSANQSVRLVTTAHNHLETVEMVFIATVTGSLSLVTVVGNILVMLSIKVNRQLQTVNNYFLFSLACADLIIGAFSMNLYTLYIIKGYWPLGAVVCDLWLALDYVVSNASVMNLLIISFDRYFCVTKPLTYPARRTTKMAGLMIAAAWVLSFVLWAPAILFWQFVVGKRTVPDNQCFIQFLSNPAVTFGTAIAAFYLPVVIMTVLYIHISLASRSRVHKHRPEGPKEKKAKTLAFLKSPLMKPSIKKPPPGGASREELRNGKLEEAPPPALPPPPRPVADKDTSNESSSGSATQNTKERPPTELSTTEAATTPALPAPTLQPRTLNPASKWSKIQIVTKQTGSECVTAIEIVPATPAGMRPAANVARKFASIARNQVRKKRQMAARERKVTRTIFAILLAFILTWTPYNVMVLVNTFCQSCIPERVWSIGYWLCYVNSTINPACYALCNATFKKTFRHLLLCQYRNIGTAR
Text: as §2, §3, §4, §5

[5] = tested on: NG108-15 neuroblastoma x glioma cells (m3 AChR); test: Inhibition of PGE1-stimulated cAMP levels in NG108-15 cells; type: cell-based; details: 0.25 h; NG108-15 cells; data relative to OXO-M; conc. of compounds = 50 μM; read-out: cAMP Inhib (relative to OXO-M)

| inhibition at 100 µM [2] [%] | inhibition at 100 µM [4] [%] | Compound | inhibition at 100 µM ([1]; NG108-15 cells) [%] | inhibition at 50 µM [2] [%] | Emax at 50 µM [5] [%] | inhibition at 50 µM [4] [%] | also measured |
| --- | --- | --- | --- | --- | --- | --- | --- |
| 32.1 ± 2.1 | 26.7 ± 1.6 | CN(CC#CCN1CCCC1)C(=O)CCCCNC(=O)OC(C)(C)C [Compound 035] | 0.5 ± 0.3 |  |  |  | Emax at 100 µM [3]: 1 ± 1% |
|  |  | COc1ccc(NC(=O)N(C)CC#CCN2CCCC2)cc1 [Compound 028] |  | 61 ± 12 | 20 ± 10 | 24 ± 6 |  |
|  |  | CN(CC#CCN1CCCC1)CCC1OCCO1 [Compound 031] |  | 20 ± 3 | 50 ± 10 | 7 ± 5 |  |
|  |  | CN(CC#CCN1CCCC1)C(=O)CCC(=O)NCCN [Compound 019, N-Methyl-N-[4-(1-pyrrolidinyl)-2-butynyl]-2-[4-(2-aminoethyl)carboxamido]propanamide] |  | 25 ± 5 | 10 ± 10 | 14 ± 2 |  |
| 17.4 ± 3.6 | 22.7 ± 2.8 | CC(=O)NCCCCCC(=O)N(C)CC#CCN1CCCC1 [Compound 041] | 3 ± 1.7 |  |  |  | Emax at 100 µM [3]: 1 ± 1% |
|  |  | COC(=O)CCC(=O)N(C)CC#CCN1CCCC1 [Compound 009, N-Methyl-N-[4-(1-pyrrolidinyl)-2-butynyl]-3-methoxycarbonylpropanamide] |  | 8 ± 1 | 10 ± 10 | 5 ± 3 |  |
|  |  | CN(CC#CCN1CCCC1)CC1OCCO1 [Compound 029, N-(2,5-dioxolylmethyl)-N-methyl-4-(1-pyrrolidinyl)-2-butynamine] |  | 19 ± 5 | 40 ± 10 | 5 ± 5 |  |
|  |  | CN(CC#CCN1CCCC1)C(=O)CCC(=O)O [Compound 008, N-Methyl-N-[4-(1-pyrrolidinyl)-2-butynyl]-3-carboxypropanamide] |  | 7 ± 2 | 10 ± 10 | 1 ± 1 |  |
| 49 | 35 | CN(CC#CCN1CCCC1)C(=O)CCCCCNC(=O)c1ccccc1 [Compound 054] | 0 |  |  |  |  |
| 27 | 16 | CN(CC#CCN1CCCC1)C(=O)CCCNC(=O)c1ccccc1 [Compound 055] | 0 |  |  |  |  |
| 40 | 23 | CN(CC#CCN1CCCC1)C(=O)CCCNC(=O)CCNC(=O)OC(C)(C)C [Compound 053] | 0 |  |  |  |  |

| Compound | inhibition at 100 µM [2] [%] | inhibition at 100 µM [4] [%] | inhibition at 100 µM ([1]; NG108-15 cells) [%] | inhibition at 50 µM [2] [%] | Emax at 50 µM [5] [%] | inhibition at 50 µM [4] [%] | also measured |
| --- | --- | --- | --- | --- | --- | --- | --- |
| CN(CC#CCN1CCCC1)C(=O)CCN [Compound 017] | 18.1 ± 2.8 | 15.1 ± 3.5 |  |  |  |  | agonist selectivity, in words [1]: selective agonists; inhibition at 100 µM ([1]; NG108-15, NG108-15 cells): 20.8 ± 1.7%; agonist activity in NG108-15 cells (cAMP inhibition), in words ([1]; NG108-15 cells): most active as agonists in NG108-15 cells; also recorded: approximately half as active as the full agonist oxotremorine-M; stimulation of PI turnover, in words [3]: inactive in SK-N-SH cells |
| CC(=O)NCCCC(=O)N(C)CC#CCN1CCCC1 [Compound 022] | 15.6 ± 1.6 | 19.1 ± 1.8 |  |  |  |  | inhibition at 100 µM ([1]; NG108-15, NG108-15 cells): 8 ± 3.7%; agonist activity in NG108-15 cells (cAMP inhibition), in words ([1]; NG108-15 cells): substantial activity; Emax at 100 µM [3]: 14 ± 5% |
| CN(CC#CCN1CCCC1)C(=O)CN [Compound 007, N-Methyl-N-[4-(1-pyrrolidinyl)-2-butynyl]-2-aminoacetamide] | 17.3 ± 3.3 | 23.5 ± 4 |  |  |  |  | agonist selectivity, in words [1]: selective agonists; inhibition at 100 µM ([1]; NG108-15, NG108-15 cells): 26.1 ± 1.6%; agonist activity in NG108-15 cells (cAMP inhibition), in words ([1]; NG108-15 cells): most active as agonists in NG108-15 cells; also recorded: approximately half as active as the full agonist oxotremorine-M; stimulation of PI turnover, in words [3]: inactive in SK-N-SH cells |
| CC(=O)NCC(=O)N(C)CC#CCN1CCCC1 [Compound 010, N-Methyl-N-[4-(1-pyrrolidinyl)-2-butynyl]-2-(N-acetylamino)acetamide] | 12.5 ± 2.8 | 24 ± 5.4 |  |  |  |  | inhibition at 100 µM ([1]; NG108-15, NG108-15 cells): 14.1 ± 2.3%; agonist activity in NG108-15 cells (cAMP inhibition), in words ([1]; NG108-15 cells): substantial activity; Emax at 100 µM [3]: 8 ± 3% |

Reference: patent US5274121A, “N-methyl-N-[4-(1-pyrrolidinyl)-2-butynyl]amide congeners as muscarinic agents” (priority 1992, dated 1993)
